Inconclusive results and toxic doses are left out. Rule for the calls: active = survival T/C of 150% or more; inactive = T/C below 125% in these data.
System: BDF1 mice, P388 leukemia ip, median survival T/C
Experiment: NCI In Vivo Anticancer Drug Screen. Data for tumor model P388 Leukemia (intraperitoneal) in B6D2F1 (BDF1) mice
Conditions: endpoint: median survival time, higher = longer survival
Method in brief: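 T/C = treated-group survival ÷ vehicle-control survival; tumour transplanted into mice before dosing.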

[1] = dose: 100.0 mg/kg/injection, schedule: Q04DX003 (ip), vehicle: Klucel (hydroxypropylcellulose) (HPC)
[2] = dose: 200.0 mg/kg/injection, schedule: Q04DX003 (ip), vehicle: Klucel (hydroxypropylcellulose) (HPC)
[3] = dose: 50.0 mg/kg/injection, schedule: Q01DX009 (ip), vehicle: saline with Tween-80
[4] = dose: 100.0 mg/kg/injection, schedule: Q01DX009 (ip), vehicle: saline with Tween-80
[5] = dose: 200.0 mg/kg/injection, schedule: Q01DX009 (ip), vehicle: saline with Tween-80

Measured: T/C

OCC1OC(n2cnc3c(=S)nc[nH]c32)C(O)C1O (stereo unspecified)
inactive: dose: 20.0 mg/kg/injection, schedule: Q01DX010 (ip), vehicle: saline 90 % of control | dose: 40.0 mg/kg/injection, schedule: Q01DX010 (ip), vehicle: saline 100 % of control | dose: 80.0 mg/kg/injection, schedule: Q01DX010 (ip), vehicle: saline 100 % of control | dose: 160.0 mg/kg/injection, schedule: Q01DX010 (ip), vehicle: saline 95 % of control

Nc1n[nH]c(=S)n1-c1ccc(Cl)cc1
inactive: [1] 100 % of control | [2] 104 % of control | dose: 400.0 mg/kg/injection, schedule: Q04DX003 (ip), vehicle: Klucel (hydroxypropylcellulose) (HPC) 100 % of control

Cc1ccc(CBr)c2ccccc12
inactive: dose: 6.25 mg/kg/injection, schedule: Q01DX009 (ip), vehicle: saline with Tween-80 102 % of control | dose: 12.5 mg/kg/injection, schedule: Q01DX009 (ip), vehicle: saline with Tween-80 114 % of control | dose: 25.0 mg/kg/injection, schedule: Q01DX009 (ip), vehicle: saline with Tween-80 124 % of control | [3] 105 % of control | [4] 121 % of control

C=CCNC(=S)Nc1cc(Cl)ccc1C
inactive: dose: 50.0 mg/kg/injection, schedule: Q04DX003 (ip), vehicle: Klucel (hydroxypropylcellulose) (HPC) 95 % of control | [1] 100 % of control | [2] 109 % of control

CC(C)(C)CC(C)(C)c1ccc(OCCOc2ccccc2NC(=O)CC(=O)c2cccc([N+](=O)[O-])c2)cc1
inactive: dose: 100.0 mg/kg/injection, schedule: Q01DX001 (ip), vehicle: Klucel (hydroxypropylcellulose) (HPC) 95 % of control | dose: 200.0 mg/kg/injection, schedule: Q01DX001 (ip), vehicle: Klucel (hydroxypropylcellulose) (HPC) 95 % of control | dose: 400.0 mg/kg/injection, schedule: Q01DX001 (ip), vehicle: Klucel (hydroxypropylcellulose) (HPC) 95 % of control

CCC(C(N)C(=O)O)C(F)(F)F (stereo unspecified)
inactive: dose: 50.0 mg/kg/injection, schedule: Q01DX005 (ip), vehicle: saline 103 % of control | dose: 100.0 mg/kg/injection, schedule: Q01DX005 (ip), vehicle: saline 108 % of control | dose: 200.0 mg/kg/injection, schedule: Q01DX005 (ip), vehicle: saline 103 % of control

Oc1ccccc1C=NC1CCCCC1.Oc1ccccc1C=NC1CCCCC1.[Ni+2]
inactive: dose: 50.0 mg/kg/injection, schedule: Q04DX003 (ip), vehicle: saline sonified 109 % of control | dose: 100.0 mg/kg/injection, schedule: Q04DX003 (ip), vehicle: saline sonified 109 % of control | dose: 200.0 mg/kg/injection, schedule: Q04DX003 (ip), vehicle: saline sonified 100 % of control

CCCCCCCCCCCC1=NC(CO)(CO)CO1
inactive: dose: 100.0 mg/kg/injection, schedule: Q01DX001 (ip), vehicle: saline with Tween-80 100 % of control | dose: 200.0 mg/kg/injection, schedule: Q01DX001 (ip), vehicle: saline with Tween-80 104 % of control | dose: 400.0 mg/kg/injection, schedule: Q01DX001 (ip), vehicle: saline with Tween-80 100 % of control

COc1cccc2c1N=C1CCCC3CN(C(C)=O)CCC123 (stereo unspecified)
inactive: [3] 99 % of control | [4] 103 % of control | [5] 99 % of control

CC1CCC(NC2=NCCO2)C(C)C1 (stereo unspecified)
inactive: dose: 12.5 mg/kg/injection, schedule: Q04DX003 (ip), vehicle: saline with Tween-80 95 % of control | dose: 25.0 mg/kg/injection, schedule: Q04DX003 (ip), vehicle: saline with Tween-80 100 % of control | dose: 50.0 mg/kg/injection, schedule: Q04DX003 (ip), vehicle: saline with Tween-80 100 % of control

Cc1ccc(-n2c(O)c(C=N)c(=O)[nH]c2=O)cc1
inactive: [3] 86 % of control | [4] 86 % of control | [5] 113 % of control

O=[N+]([O-])c1ccc(N2CCOCC2)c2c1no[n+]2[O-]
active: dose: 32.0 mg/kg/injection, schedule: Q04DX003 (ip), vehicle: saline with Tween-80 150 % of control | dose: 64.0 mg/kg/injection, schedule: Q04DX003 (ip), vehicle: saline with Tween-80 160 % of control
inactive: dose: 6.25 mg/kg/injection, schedule: Q01DX009 (ip), vehicle: saline 95 % of control | dose: 12.5 mg/kg/injection, schedule: Q01DX009 (ip), vehicle: saline 100 % of control | dose: 25.0 mg/kg/injection, schedule: Q01DX009 (ip), vehicle: saline 108 % of control

CCC(C(=O)O)c1ccccc1 (stereo unspecified)
inactive: [3] 90 % of control | [5] 109 % of control

O=c1[nH]c(=O)[nH]c(=O)[nH]1
inactive: dose: 75.0 mg/kg/injection, schedule: Q01DX009 (ip), vehicle: Klucel (hydroxypropylcellulose) (HPC) 120 % of control | dose: 150.0 mg/kg/injection, schedule: Q01DX009 (ip), vehicle: Klucel (hydroxypropylcellulose) (HPC) 120 % of control | dose: 300.0 mg/kg/injection, schedule: Q01DX009 (ip), vehicle: Klucel (hydroxypropylcellulose) (HPC) 110 % of control

Reference: PubChem BioAssay AID328 (DTP/NCI, 2004)
